# System: H630 p53 mutant colorectal cancer cell
# Assay: Western blot of AREG protein in H630 p53 mutant lysates after chemotherapy
# Type: cell-based, human
# Settings: 48 hour treatment, two separate experiments
# Description: FIG. 4 illustrates analysis of AREG protein 14, expression in H630 p53 mutant colorectal cancer cell lysates following a 48 hour CPT11 treatment. Western blots were probed using an anti-amphiregulin antibody. […] HCT 116, RKO, HT 29 and H630 are human colorectal carcinoma cell lines. After different time exposure to chemotherapy the cells were harvested, and washed in 1×PBS. The cell pellet was then lysed in a suitable amount of 1×RIPA lysis buffer (150 mM NaCl, 10 mM Tris at pH 7.2, 0.1% SDS, 1.0% triton X-100 and 5 mM.EDTA) supplemented with protease inhibitors. The cell lysate was briefly vortexed, incubated on ice for 10 min and then centrifuged at 12,000 rpm to remove cell debris. Following centrifugation, the lysate supernatant was removed to a fresh eppendorf tube. Protein concentrations were assayed using the BCA Protein Assay (Pierce) according to the manufacturer's instructions. The absorbance of each sample at 620 nm was assayed using a microplate reader. A standard BSA curve was plotted for each experiment and the protein concentration of each sample calculated. To each sample an equal volume of 5× Western sample buffer and 10% of the final volume of β-mercaptoethanol (Sigma) was added. […] Protein bands were detected by exposure to autoradiograph which was subsequently developed. […]
smiles,measurement,value
"CCc1c2c(nc3ccc(OC(=O)N4CCC(N5CCCCC5)CC4)cc13)-c1cc3c(c(=O)n1C2)COC(=O)[C@]3(O)CC [CPT-11, irinotecan]",AREG protein expression (western blot),Enhanced AREG expression

# From US20100111965A1, “COMBINATION THERAPY” (FUSION ANTIBODIES LIMITED, priority 2006, published 2010)
